Test system: T1, MpBgl3
T1 construct: native secreted enzyme purified from culture filtrate (cellobiose-grown), N-glycosylated
Assay: p-nitrophenol release, absorbance at […] nm; SigrafW fit
Assay type: biochemical, Malbranchea pulchella
Conditions: McIlvaine buffer pH 6.0, 50 °C

O=[N+]([O-])c1ccc(O[C@@H]2O[C@H](CO)[C@@H](O)[C@H](O)[C@H]2O)cc1 [pNPG]
Km: 330 µM
